Experimental data taken from patent US12564581B2, “Pyrazole pharmaceutical composition” (Intervet Inc., priority 2019, dated 2026).

Assays:
[1] = Solubility of the compound in surfactant solutions; format: physicochemical
Description: To increase solubility of the compound and promote increase bioavailability, a number of surfactants were screened. The table below lists the solubilities of 1-[(3R,4S)-4-cyanotetrahydropyran-3-yl]-3-[(2-fluoro-6-methoxy-4-pyridyl)amino]pyrazole-4-carboxamide in the tested surfactant solutions.

cIL-31 induced pruritus = conditions: with respect to placebo; similar magnitude to oclacitinib (Apoquel); from WO 2018/108969; cited from earlier work

solubility ([1]; 1% polysorbate (Tween 80) solution, aqueous with cosolvent or surfactant or cyclodextrin, 1% polysorbate (Tween 80)): 50.3 µg/mL
solubility ([1]; 1% sodium lauryl sulfate (SLS) solution, aqueous with cosolvent or surfactant or cyclodextrin, 1% sodium lauryl sulfate (SLS)): 195 µg/mL
solubility ([1]; 10% ELP solution, aqueous with cosolvent or surfactant or cyclodextrin, 10% ELP): 541 µg/mL
solubility ([1]; 10% P407 solution, aqueous with cosolvent or surfactant or cyclodextrin, 10% P407): 217 µg/mL
solubility ([1]; 10% Poloxamer 124 solution, aqueous with cosolvent or surfactant or cyclodextrin, 10% Poloxamer 124): 108 µg/mL
solubility ([1]; 10% Poloxamer 188 solution, aqueous with cosolvent or surfactant or cyclodextrin, 10% Poloxamer 188): 109 µg/mL
solubility ([1]; 10% hydrogenated castor oil (RH40) solution, aqueous with cosolvent or surfactant or cyclodextrin, 10% hydrogenated castor oil (RH40)): 489 µg/mL
solubility ([1]; 10% polyvinylpyrrolidone (PVP) solution, aqueous with cosolvent or surfactant or cyclodextrin, 10% polyvinylpyrrolidone (PVP)): 133 µg/mL
solubility ([1]; 30% HS15 solution, aqueous with cosolvent or surfactant or cyclodextrin, 30% HS15): 1420 µg/mL
solubility ([1]; Oleoyl macrogol-6 / polyoxyl-6 glycerides (Labrafil M1944CS), oil or lipid): 807 µg/mL
solubility ([1]; aqueous with cosolvent or surfactant or cyclodextrin, 1% D-a-Tocopheryl polyethylene glycol 1000 succinate (TPGS)): 99 µg/mL
solubility ([1]; aqueous with cosolvent or surfactant or cyclodextrin, 10% polyoxyethylated 12-hydroxystearic acid (Solutol HS 15)): 460 µg/mL
Water solubility (in words) ([1]; water): poorly water soluble
solubility ([1]; water): 8 µg/mL
Structure (SMILES): COc1cc(Nc2nn([C@H]3COCC[C@@H]3C#N)cc2C(N)=O)cc(F)n1 [compound of Formula (I), 1-[(3R,4S)-4-cyanotetrahydropyran-3-yl]-3-[(2-fluoro-6-methoxy-4-pyridyl)amino]pyrazole-4-carboxamide]
Suppression of pruritus (cIL-31 induced pruritus): significantly suppressed pruritus
